Common to all, as to assay type: cell-based
The subject of test [1] is Isogenic E. coli J58 strain carrying VIM-2. As to the kind of experiment: MIC determination, isogenic E. coli strains. To be noted: for MIC: Escherichia coli, 18 h, read-out: Mimimum Inhibitory Concentrations, VIM-2. In a few lines:
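Broth microdilution in cation-adjusted Mueller-Hinton with 20 μM apo-transferrin, compound serially halved from 64 μg/mL, read by eye after 18 h at 37 °C as lowest clear well. Inoculum: VIM-2-expressing E. coli J53 (pBC-SK(+) plasmid), adjusted to 0.5 McFarland.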

For test [2], the system named is Isogenic E. coli J58 strain carrying TEM-26. As to the kind of experiment: MIC determination, isogenic E. coli strains. To be noted: Escherichia coli, 18 h, read-out: Mimimum Inhibitory Concentrations, TEM-26. The procedure, abridged: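 E. coli J53 carried a pBC-SK(+) plasmid expressing TEM-26 β-lactamase. Compounds were serially halved from […] in CAMH broth containing 20 μM apo-transferrin, inoculated from a 0.5 McFarland culture and held overnight (18 h, 37° C); MIC read as the lowest concentration without visible growth.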

The subject of the next test is E. coli J53 Alone. As to the kind of experiment: MIC determination, isogenic E. coli strains. To be noted: for MIC: Escherichia coli, J53ALONE, 18 h, read-out: Mimimum Inhibitory Concentrations, J53 Alone; for Mimimum Inhibitory Concentrations, J53 Alone: Table 4-2, CAMH broth, 20 μM Apo-Transferrin, 37° C., 18 hours. In a few lines:
(§1)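 MIC read as the lowest compound level giving a transparent well after 18 h at 37° C. Strains: parent E. coli J53 and isogenic transformants expressing plasmid-borne (pBC-SK(+)) beta-lactamases such as DHA-1; inoculum 0.5 McFarland; CAMH broth plus 20 μM apo-transferrin; compound 64 μg/mL downward, 2-fold dilutions.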

Test [3] has as its system Isogenic E. coli J58 strain carrying CTX-M-14. As to the kind of experiment: MIC determination, isogenic E. coli strains. To be noted: Escherichia coli, 18 h, read-out: Mimimum Inhibitory Concentrations, CTX-M-14. The procedure, abridged: (§2)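 Isogenic E. coli J53 carrying plasmid-encoded CTX-M-14 or CTX-M-15 (ampicillin-selected), standardized to 0.08-0.1 OD600, incubated overnight (18 h, 37° C.) in CAMH broth plus 20 μM apo-transferrin over 2-fold compound dilutions starting at 64 μg/mL. Lowest concentration with no visible growth recorded as MIC.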

Test [4] concerns Isogenic E. coli J58 strain carrying CTX-M-15. In words: MIC determination, isogenic E. coli strains. To be noted: Escherichia coli, 18 h, read-out: Mimimum Inhibitory Concentrations, CTX-M-15. The procedure, abridged: as §2
Test [5] concerns Isogenic E. coli J58 strain carrying NDM-1. As to the kind of experiment: MIC determination, isogenic E. coli strains. To be noted: Escherichia coli, 18 h, read-out: Mimimum Inhibitory Concentrations, NDM-1. The procedure, abridged: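 Broth microdilution was run in cation-adjusted Mueller-Hinton broth supplemented with 20 μM apo-transferrin, using a 64 μg/mL top concentration diluted twofold. The inoculum was NDM-1-expressing E. coli J53 (pBC-SK(+) plasmid) at 0.5 McFarland. After overnight incubation (18 h, 37° C), the lowest compound concentration preventing visible growth was recorded as the MIC.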

The test system of test [6] is Pseudomonas aeruginosa PA (RR-2). As to the kind of experiment: MIC determination. To be noted: Pseudomonas aeruginosa; PA (RR-2); CAMH broth, 20 μM Apo-Transferrin, 37° C., 18 hours; read-out: Minimum Inhibitory Concentrations, PA (RR-2). As to the method: (§3) Sterile technique was used throughout these experiments. Suspensions of organisms were removed from storage (−80° C.) and partially thawed. Partially thawed organisms (1 μL) were inoculated into 3 mL sterile LB Broth in a sterile culture tube and capped, then cultured at 37° C. with shaking for 4-5 hours until the optical density at 600 nm (OD600) was greater than 0.1 on a single beam spectrophotometer.
(§4) The concentration of organisms was adjusted to 0.08-0.1 OD600 (0.5 McFarland units) by dilution with sterile cation-adjusted Meuller-Hinton (CAMH) broth. The suspensions were used within 30 minutes of preparation.
(§5) A stock solution was made of each test compound by measuring 6.4 mg of the compound on an analytical balance and dissolving it in DMSO (1 mL) to get a transparent solution. The solutions were stored at −20° C. and thawed prior to use.
(§6) Sterile CAMH broth (200 μL) containing 20 μM Apo-Transferrin was pipetted into the first row of 8 columns of a sterile, round-bottomed, transparent, 96-well microplate using an 8-channel pipette equipped with sterile tips. One hundred μL was pipetted into the wells of the remaining 11 rows.
(§7) With an 8-channel pipette equipped with sterile tips, 100 μL of the first row solution was transferred to the second row and mixed. The process was repeated for the second to third rows and continued through row 11. One hundred μL from row 11 was removed and discarded so that all 12 rows contained 100 μL. Row 12 contained no compound and rows 1-11 contained 64, 32, 16, 8, 4, 2, 1, 0.5, 0.25, 0.125, […] of a given compound.
(§8) Inoculant suspensions (0.5 μL) were added to the 12 wells of each column. The plates were then covered and incubated at 37° C. overnight for 18 hours.
(§9) For each organism the MIC was determined by identifying the transparent well with the lowest test compound concentration.

For test [7], the system named is Pseudomonas aeruginosa PA (URMC-3). As to the kind of experiment: MIC determination. To be noted: Pseudomonas aeruginosa; PA (URMC-3); CAMH broth, 20 μM Apo-Transferrin, 37° C., 18 hours; read-out: Minimum Inhibitory Concentrations, PA (URMC-3). As to the method: as §3, §4, §5, §6, §7, §8, §9
Test [8] concerns Pseudomonas aeruginosa PA-RR-(980151052). As to the kind of experiment: MIC determination. To be noted: Pseudomonas aeruginosa; PA-RR-(980151052); CAMH broth, 20 μM Apo-Transferrin, 37° C., 18 hours; read-out: Minimum Inhibitory Concentrations, PA-RR-(980151052). As to the method:
as §3, §4, §5, §6, §7, §8, §9

Test [9] deals with Pseudomonas aeruginosa PA-RR-(98023895). As to the kind of experiment: MIC determination. The note with it: Pseudomonas aeruginosa; PA-RR-(98023895); CAMH broth, 20 μM Apo-Transferrin, 37° C., 18 hours; read-out: Minimum Inhibitory Concentrations, PA-RR-(98023895). As to the method: as §3, §4, §5, §6, §7, §8, §9
Test [10] concerns Pseudomonas aeruginosa PA-RR-(G7304100). In words: MIC determination. The note with it: Pseudomonas aeruginosa; PA-RR-(G7304100); CAMH broth, 20 μM Apo-Transferrin, 37° C., 18 hours; read-out: Minimum Inhibitory Concentrations, PA-RR-(G7304100). As to the method:
as §3, §4, §5, §6, §7, §8, §9

For test [11], the system named is Pseudomonas aeruginosa PA (URMC-2). As to the kind of experiment: MIC determination. The note with it: Pseudomonas aeruginosa; PA (URMC-2); CAMH broth, 20 μM Apo-Transferrin, 37° C., 18 hours; read-out: Minimum Inhibitory Concentrations, PA (URMC-2). As to the method: as §3, §4, §5, §6, §7, §8, §9
Test [12] deals with Pseudomonas aeruginosa (PA). As to the kind of experiment: MIC determination. The note with it: Pseudomonas aeruginosa; PA; CAMH broth, 20 μM Apo-Transferrin, 37° C., 18 hours; read-out: Minimum Inhibitory Concentrations, PA. As to the method:
as §3, §4, §5, §6, §7, §8, §9

The subject of test [13] is Pseudomonas aeruginosa PA (RR-1). As to the kind of experiment: MIC determination. The note with it: Pseudomonas aeruginosa; PA (RR-1); CAMH broth, 20 μM Apo-Transferrin, 37° C., 18 hours; read-out: Minimum Inhibitory Concentrations, PA (RR-1). As to the method: as §3, §4, §5, §6, §7, §8, §9
Test [14] concerns Pseudomonas aeruginosa PA-RR-(G7305586). In words: MIC determination. The note with it: Pseudomonas aeruginosa; PA-RR-(G7305586); CAMH broth, 20 μM Apo-Transferrin, 37° C., 18 hours; read-out: Minimum Inhibitory Concentrations, PA-RR-(G7305586). As to the method: as §3, §4, §5, §6, §7, §8, §9
For test [15], the system named is Pseudomonas aeruginosa PA-RR-(G7294437). As to the kind of experiment: MIC determination. To be noted: Pseudomonas aeruginosa; PA-RR-(G7294437); CAMH broth, 20 μM Apo-Transferrin, 37° C., 18 hours; read-out: Minimum Inhibitory Concentrations, PA-RR-(G7294437). As to the method:
as §3, §4, §5, §6, §7, §8, §9

For test [16], the system named is Isogenic E. coli J58 strain carrying DHA-1. As to the kind of experiment: MIC determination, isogenic E. coli strains. To be noted: Escherichia coli, 18 h, read-out: Mimimum Inhibitory Concentrations, DHA-1. The procedure, abridged: as §1

As for `CC(C)(O/N=C(\C(=O)N[C@@H]1C(=O)N2C(C(=O)O)=C(C=Cc3ccc(C[N+]4(C)CCc5cc(O)c(O)cc5C4)cc3)CS[C@H]12)c1csc(N)n1)C(=O)O` (mixture of isomers) [Compound 407, 2-(4-((E/Z)-2-((6R,7R)-7-((Z)-2-(2-aminothiazol-4-yl)-2-(((2-carboxypropan-2-yl)oxy)imino)acetamido)-2-carboxy-8-oxo-5-thia-1-azabicyclo[4.2.0]oct-2-en-3 yl)vinyl)benzyl)-6,7-dihydroxy-2-methyl-1,2,3,4-tetrahydroisoquinolin-2-ium], the MIC was 0.5 µg/mL in test [1]; 1 µg/mL in [2]; 0.13 µg/mL in the test on E. coli J53 Alone; 1 µg/mL in [3]; 64 µg/mL in [4]; over 64 µg/mL in [5]. The MIC in test [6] was determined as 2 µg/mL; in test [7], 0.25 µg/mL; in test [8], 0.06 µg/mL; in test [9], 0.13 µg/mL; in [10] it was 0.03 µg/mL; in test [11], 4 µg/mL. Besides, the MIC in [12] stood at 2 µg/mL; in test [13], 4 µg/mL; in [14], 0.03 µg/mL; in test [15], 0.03 µg/mL. Moreover, the “Mimimum Inhibitory Concentrations, J53 Alone” value in the test with E. coli J53 Alone turned out to be 0.13 microgram/mL.
Regarding `CC(C)(O/N=C(\C(=O)N[C@@H]1C(=O)N2C(C(=O)O)=C(C=Cc3ccc(C[N+]4(C)Cc5cc(O)c(O)c(Cl)c5C4)cc3)CS[C@H]12)c1csc(N)n1)C(=O)O` (mixture of isomers) [Compound 432, 2-(4-((E/Z)-2-((6R,7R)-7-((Z)-2-(2-aminothiazol-4-yl)-2-(((2-carboxypropan-2-yl)oxy)imino)acetamido)-2-carboxy-8-oxo-5-thia-1-azabicyclo[4.2.0]oct-2-en-3-yl)vinyl)benzyl)-4-chloro-5,6-dihydroxy-2-methylisoindolin-2-ium], the MIC is at most 0.06 µg/mL in [1]; at most 0.06 µg/mL in test [16]; at most 0.06 µg/mL with E. coli J53 Alone; at most 0.06 µg/mL in [3]; at most 0.06 µg/mL in test [4]; over 64 µg/mL in test [5]. Further, the MIC in test [6] was 0.13 µg/mL; in test [7], 1 µg/mL; in [8], 0.25 µg/mL; in test [9] it was 4 µg/mL; in [10] it was at most 0.06 µg/mL; in [11], 0.5 µg/mL. Moreover, the MIC in [12] was 0.25 µg/mL; in test [13], 1 µg/mL; in test [14], 1 µg/mL; in [15], at most 0.06 µg/mL. In addition, the “MICs for an E. coli strain carrying the gene for carbapenemase VIM-1, in words” value in test [1] (review of Tables 4-1 and 4-2) is given as “low microgram/mL MICs”. In addition, the “Mimimum Inhibitory Concentrations, J53 Alone” value with E. coli J53 Alone was at most 0.06 microgram/mL.
With `CC(C)(O/N=C(\C(=O)N[C@@H]1C(=O)N2C(C(=O)O)=C(C=Cc3ccc(C[N+]4(C)CCc5ccc(O)c(O)c5C4)cc3)CS[C@H]12)c1csc(N)n1)C(=O)O` (mixture of isomers) [Compound 442, 2-(4-((E/Z)-2-((6R,7R)-7-((Z)-2-(2-aminothiazol-4-yl)-2-(((2-carboxypropan-2-yl)oxy)imino)acetamido)-2-carboxy-8-oxo-5-thia-1-azabicyclo[4.2.0]oct-2-en-3 yl)vinyl)benzyl)-7,8-dihydroxy-2-methyl-1,2,3,4-tetrahydroisoquinolin-2-ium], the MIC in test [2] was 0.5 µg/mL; in the test with E. coli J53 Alone, 0.25 µg/mL; in [5] it was over 64 µg/mL; in test [6], at most 0.06 µg/mL; in test [7], 0.5 µg/mL; in [8], 2 µg/mL. The MIC in [9] was 8 µg/mL; in [10], at most 0.06 µg/mL; in [11], 0.25 µg/mL; in [12] it was 0.13 µg/mL; in test [13], 0.5 µg/mL; in test [14] it was 2 µg/mL. Besides, the MIC in [15] was at most 0.06 µg/mL. The “Mimimum Inhibitory Concentrations, J53 Alone” value in the test with E. coli J53 Alone is 0.25 microgram/mL.

The values above are taken from patent publication US20190100534A1, “Cephem Compounds with Latent Reactive Groups” (Gladius Pharmaceuticals, Inc., priority 2017, published 2019).
